In the NIST ThermoML archive (doi:10.1016/j.tca.2008.05.002):

Assay: molar heat capacity at saturation pressure
Conditions: Small (less than 1 g) adiabatic calorimetry

CCCCn1cc[n+](C)c1.O=[N+]([O-])[O-] [1-butyl-3-methylimidazolium nitrate]
Conditions | molar heat capacity [J/K/mol]
223.56 K, Crystal 4 | 239.25
224.66 K, Crystal 4 | 240.26
225.64 K, Crystal 4 | 241.27
226.74 K, Crystal 4 | 242.07
227.72 K, Crystal 4 | 243.28
228.81 K, Crystal 4 | 244.08
229.79 K, Crystal 4 | 245.29
230.88 K, Crystal 4 | 246.1
231.86 K, Crystal 4 | 247.3
232.95 K, Crystal 4 | 248.31
233.92 K, Crystal 4 | 249.32
235.01 K, Crystal 4 | 250.32
235.97 K, Crystal 4 | 251.53
237.06 K, Crystal 4 | 252.54
238.03 K, Crystal 4 | 253.54
239.1 K, Crystal 4 | 254.75
239.2 K, Crystal 4 | 254.95
240.07 K, Crystal 4 | 255.55
241.14 K, Crystal 4 | 256.96
241.7 K, Crystal 4 | 257.57
242.11 K, Crystal 4 | 257.77
243.17 K, Crystal 4 | 259.18
244.08 K, Crystal 4 | 260.18
244.15 K, Crystal 4 | 259.98
245.2 K, Crystal 4 | 261.39
246.17 K, Crystal 4 | 262.6
246.45 K, Crystal 4 | 262.8
247.22 K, Crystal 4 | 263.8
248.19 K, Crystal 4 | 265.01
248.81 K, Crystal 4 | 265.61
249.23 K, Crystal 4 | 266.42
250.2 K, Crystal 4 | 267.63
251.15 K, Crystal 4 | 268.43
251.23 K, Crystal 4 | 269.04
252.21 K, Crystal 4 | 270.04
253.23 K, Crystal 4 | 271.45
253.48 K, Crystal 4 | 271.45
254.2 K, Crystal 4 | 272.66
255.22 K, Crystal 4 | 274.27
255.8 K, Crystal 4 | 274.87
256.19 K, Crystal 4 | 275.68
257.2 K, Crystal 4 | 277.29
258.1 K, Crystal 4 | 278.49
258.18 K, Crystal 4 | 278.49
259.18 K, Crystal 4 | 280.3
260.15 K, Crystal 4 | 281.51
260.4 K, Crystal 4 | 282.11
261.14 K, Crystal 4 | 283.32
262.11 K, Crystal 4 | 284.53
262.67 K, Crystal 4 | 286.14
263.1 K, Crystal 4 | 286.54
264.07 K, Crystal 4 | 287.95
264.94 K, Crystal 4 | 289.96
265.05 K, Crystal 4 | 289.56
266.02 K, Crystal 4 | 291.37
267 K, Crystal 4 | 293.79
267.19 K, Crystal 4 | 294.19
267.95 K, Crystal 4 | 295.4
268.93 K, Crystal 4 | 297.81
269.43 K, Crystal 4 | 299.02
269.88 K, Crystal 4 | 299.82
270.85 K, Crystal 4 | 302.44
271.65 K, Crystal 4 | 304.85
271.78 K, Crystal 4 | 304.65
271.8 K, Liquid | 345.1
272.76 K, Crystal 4 | 307.47
273.68 K, Crystal 4 | 310.69
273.85 K, Crystal 4 | 312.1
274.46 K, Liquid | 345.9
274.66 K, Crystal 4 | 313.71
275.56 K, Crystal 4 | 318.94
276.02 K, Crystal 4 | 318.54
276.35 K, Crystal 4 | 310.08
277.02 K, Liquid | 346.71
277.33 K, Crystal 4 | 355.76
277.73 K, Crystal 4 | 345.5
277.82 K, Crystal 4 | 609.71
278.14 K, Crystal 4 | 322.56
278.16 K, Crystal 4 | 408.68
278.25 K, Crystal 4 | 455.57
278.82 K, Crystal 3 | 545.72
279.03 K, Crystal 3 | 470.06
279.41 K, Liquid | 347.51
279.47 K, Crystal 3 | 414.92
279.88 K, Crystal 3 | 382.53
280.31 K, Crystal 3 | 308.07
280.95 K, Crystal 3 | 310.08
281.81 K, Liquid | 348.32
281.84 K, Crystal 3 | 313.91
281.86 K, Crystal 3 | 314.31
282.47 K, Crystal 3 | 319.54
283.34 K, Crystal 3 | 324.98
283.95 K, Crystal 3 | 333.43
284.03 K, Crystal 3 | 333.23
284.21 K, Liquid | 349.12
284.81 K, Crystal 3 | 341.48
285.42 K, Crystal 3 | 355.56
286.1 K, Crystal 3 | 372.26
286.25 K, Crystal 3 | 363.41
286.61 K, Liquid | 349.93
286.8 K, Crystal 3 | 390.78
287.64 K, Crystal 3 | 372.26
288.03 K, Crystal 3 | 432.83
288.12 K, Crystal 2 | 417.54
289.01 K, Liquid | 350.73
289.03 K, Crystal 2 | 359.38
289.45 K, Crystal 2 | 366.43
289.95 K, Crystal 2 | 362.2
290.42 K, Crystal 2 | 367.43
290.84 K, Crystal 2 | 370.25
291.41 K, Liquid | 351.54
291.75 K, Crystal 2 | 425.39
291.98 K, Crystal 2 | 378.5
292.18 K, Crystal 2 | 416.33
293 K, Crystal 1 | 432.03
293.5 K, Crystal 1 | 380.51
293.81 K, Liquid | 352.34
293.98 K, Crystal 1 | 378.1
294.33 K, Crystal 1 | 377.9
294.87 K, Crystal 1 | 383.53
295.97 K, Crystal 1 | 397.01
296.14 K, Crystal 1 | 399.03
296.21 K, Liquid | 353.15
296.66 K, Crystal 1 | 410.29
297.89 K, Crystal 1 | 432.63
298.32 K, Crystal 1 | 442.09
298.61 K, Liquid | 353.95
298.79 K, Crystal 1 | 458.19
299.7 K, Crystal 1 | 486.36
300.51 K, Crystal 1 | 519.76
300.77 K, Crystal 1 | 538.67
301.01 K, Liquid | 354.76
301.36 K, Crystal 1 | 572.08
302.38 K, Crystal 1 | 652.97
302.52 K, Crystal 1 | 675.3
302.83 K, Crystal 1 | 708.51
303.42 K, Liquid | 355.76
303.87 K, Crystal 1 | 876.13
303.98 K, Crystal 1 | 909.13
304.08 K, Crystal 1 | 926.83
305.82 K, Liquid | 356.57
308.22 K, Liquid | 357.37
310.14 K, Liquid | 358.38
310.4 K, Liquid | 358.58
310.62 K, Liquid | 358.38
311.19 K, Liquid | 358.58
312.54 K, Liquid | 359.18
313.02 K, Liquid | 358.98
313.34 K, Liquid | 359.18
314.75 K, Liquid | 359.99
315.42 K, Liquid | 360.19
315.54 K, Liquid | 359.99
316.76 K, Liquid | 360.59
317.74 K, Liquid | 360.99
317.82 K, Liquid | 360.99
318.76 K, Liquid | 361.6
319.94 K, Liquid | 361.8
320.21 K, Liquid | 362
320.76 K, Liquid | 362.4
322.14 K, Liquid | 362.81
322.61 K, Liquid | 363.01
322.77 K, Liquid | 363.41
324.34 K, Liquid | 363.61
324.77 K, Liquid | 364.01
325.01 K, Liquid | 363.81
326.54 K, Liquid | 364.62
326.77 K, Liquid | 364.62
327.41 K, Liquid | 365.02
328.73 K, Liquid | 365.22
328.78 K, Liquid | 365.42
329.81 K, Liquid | 365.82
330.78 K, Liquid | 366.43
330.93 K, Liquid | 366.23
332.2 K, Liquid | 366.83
332.78 K, Liquid | 367.23
333.12 K, Liquid | 367.03
334.6 K, Liquid | 367.84
334.78 K, Liquid | 368.24
335.32 K, Liquid | 367.84
336.78 K, Liquid | 368.84
336.99 K, Liquid | 368.64
337.51 K, Liquid | 369.04
338.78 K, Liquid | 369.65
339.71 K, Liquid | 369.65
340.78 K, Liquid | 370.45
341.9 K, Liquid | 370.45
342.78 K, Liquid | 371.46
344.09 K, Liquid | 371.46
344.78 K, Liquid | 372.26
346.29 K, Liquid | 372.46
346.78 K, Liquid | 373.27
348.48 K, Liquid | 373.47
348.78 K, Liquid | 374.07
350.68 K, Liquid | 374.28
350.78 K, Liquid | 374.88
352.78 K, Liquid | 375.68
352.87 K, Liquid | 375.48
354.78 K, Liquid | 376.69
355.06 K, Liquid | 376.29
356.78 K, Liquid | 377.7
357.25 K, Liquid | 377.49
358.78 K, Liquid | 378.3
359.44 K, Liquid | 378.3
360.77 K, Liquid | 379.31
361.63 K, Liquid | 379.31
363.82 K, Liquid | 380.11
366.01 K, Liquid | 381.12
368.19 K, Liquid | 382.32
